Common to all, as to type: cell-based
Experiment [1] deals with KRas-mediated Phosphorylation of ERK in H727 cells. Description: Cisbio HTRF pERK assay, H727 cells. The conditions noted are these: for IC50: 3 hrs compound, read-out: Inhibition (HTRF IC50 nM) of KRas-mediated Phosphorylation of ERK, H727; for inhibition at 0.1 µM: Homo sapiens, NCI-H727, single point at 100 nM.
Experiment [2] relates to KRas-mediated Phosphorylation of ERK in A549 cells. As to the kind of experiment: Cisbio HTRF pERK assay, A549 cells. Particulars: for IC50: A549 cells, 3 hrs compound, read-out: Inhibition (HTRF IC50 nM) of KRas-mediated Phosphorylation of ERK, A549; for inhibition at 0.1 µM: Homo sapiens, A549, A549 cells, single point at 100 nM. On the technique in general: In TR-FRET formats the signal depends on donor and acceptor labels being close together.

Experiment [3] relates to KRas-mediated Phosphorylation of ERK in H460 cells. As to the kind of experiment: Cisbio HTRF pERK assay, H460 cells. Particulars: for IC50: H460 cells, 3 hrs compound, read-out: Inhibition (HTRF IC50 nM) of KRas-mediated Phosphorylation of ERK, H460; for inhibition at 0.1 µM: Homo sapiens, NCI-H460, H460 cells, single point at 100 nM.
For experiment [4], the system named is KRas-mediated Phosphorylation of ERK in HCT116 cells. Description: Cisbio HTRF pERK assay, HCT116 cells. The conditions noted are these: for IC50: HCT116 cells, 3 hrs compound, read-out: Inhibition (HTRF IC50 nM) of KRas-mediated Phosphorylation of ERK, HCT116; for inhibition at 0.1 µM: Homo sapiens, HCT-116, HCT116 cells, single point at 100 nM.
Experiment [5] has as its system KRas-mediated Phosphorylation of ERK in AsPC-1 cells. As to the kind of experiment: Cisbio HTRF pERK assay, AsPC-1 cells. Particulars: for IC50: 3 hrs compound, read-out: Inhibition (HTRF IC50 nM) of KRas-mediated Phosphorylation of ERK, AsPC-1; for inhibition at 0.1 µM: ASPC1, single point at 100 nM.
The subject of experiment [6] is KRas-mediated Phosphorylation of ERK in H358 cells. Description: Cisbio HTRF pERK assay, H358 cells. Particulars: for IC50: H358 cells, 3 hrs compound, read-out: Inhibition (HTRF IC50 nM) of KRas-mediated Phosphorylation of ERK, H358; for inhibition at 0.1 µM: Homo sapiens, NCI-H358, H358 cells, single point at 100 nM.

Like-named read-outs stand apart in the source and are kept apart here.

Regarding `N#Cc1c(N)sc2c(F)ccc(-c3c(Cl)cc4c(N5CC6CCC(C5)N6)nc(OC[C@@]56CCCN5C/C(=C\F)C6)nc4c3F)c12` [Example 179, (S)-4-(4-((1R,5S)-3,8-diazabicyclo[3.2.1]octan-3-yl)-6-chloro-8-fluoro-2-(((S,Z)-2-(fluoromethylene)tetrahydro-1H-pyrrolizin-7a(5H)-yl)methoxy)quinazolin-7-yl)-2-amino-7-fluorobenzo[b]thiophene-3-carbonitrile], the IC50 (in general, the concentration that inhibits the measured activity by half) in experiment [1] is 6810 nM; in experiment [2] it was 3140 nM; in experiment [3] it was 2320 nM; in experiment [4], 3770 nM; in experiment [5] it was 116 nM; in experiment [6], 2610 nM.

As for `CCc1c(F)ccc2cc(O)cc(-c3c(F)cc4c(N5CCCC6(CCO6)C5)nc(OC[C@@]56CCCN5C[C@H](F)C6)nc4c3F)c12` (stereo partly drawn) [Example 77, 4-(6,8-difluoro-2-(((2R,7aS)-2-fluorotetrahydro-1H-pyrrolizin-7a(5H)-yl)methoxy)-4-(1-oxa-6-azaspiro[3.5]nonan-6-yl)quinazolin-7-yl)-5-ethyl-6-fluoronaphthalen-2-ol], the inhibition (usually the percentage by which the read-out fell short of the control) at 0.1 µM in experiment [1] is 66%; in experiment [2] it was 82%; in experiment [3], 86%; in experiment [4] it was 45%; in experiment [5] (Homo sapiens), 87%; in experiment [6], 96%.

Take `CN(C)C(=O)c1cc2n(n1)CCCN(c1nc(OC[C@@]34CCCN3C/C(=C\F)C4)nc3c(F)c(-c4ccc(F)c5sc(N)c(C#N)c45)c(Cl)cc13)C2` (atropisomer, axis not shown) [Example 194, 5-((S)-7-(2-amino-3-cyano-7-fluorobenzo[b]thiophen-4-yl)-6-chloro-8-fluoro-2-(((S,Z)-2-(fluoromethylene)tetrahydro-1H-pyrrolizin-7a(5H)-yl)methoxy)quinazolin-4-yl)-N,N-dimethyl-5,6,7,8-tetrahydro-4H-pyrazolo[1,5-a][1,4]diazepine-2-carboxamide]: the IC50 in experiment [1] was 342 nM; in experiment [2], 605 nM; in experiment [3], 427 nM; in experiment [4] it was 896 nM; in experiment [5] (Homo sapiens, ASPC1, 3 h) it was 192 nM; in experiment [6], 128 nM.

On to `CCc1c(F)ccc2cc(O)cc(-c3c(F)cc4c(N5CCCn6nc(C(=O)N(C)C)c(Cl)c6C5)nc(OC[C@@]56CCCN5C[C@H](F)C6)nc4c3F)c12` [Example 78, 3-chloro-5-(7-(8-ethyl-7-fluoro-3-hydroxynaphthalen-1-yl)-6,8-difluoro-2-(((2R,7aS)-2-fluorohexahydro-1H-pyrrolizin-7a-yl)methoxy)quinazolin-4-yl)-N,N-dimethyl-5,6,7,8-tetrahydro-4H-pyrazolo[1,5-a][1,4]diazepine-2-carboxamide], for which the inhibition at 0.1 µM in experiment [1] turned out to be 75%; in experiment [2] it was 94%; in experiment [3] it was 81%; in experiment [4], 75%; in experiment [5] (Homo sapiens), 98%; in experiment [6] it was 96%.
